Laboratory results as given in US20040023909A1, “Process for preventing or reducing undesirable immunological effects to infectious agents in subjects” (Enzo Therapeutics, Inc, priority 1997, published 2004).

Tested on: U937 cells
Experiment: Delivery of labeled BSA to cells (fluorescent microscope)
Assay type: cell-based
Conditions: for Cells displaying fluorescense: overnight at 37° C.
Protocol: U937 cells were grown to approximately 10^6/ml and centrifuged, washed in growth medium (RPMI), suspended in 3.5 ml of RPMI, and 0.8 ml was placed in each of four 35 mm wells. BSA-BF and BSA-F, each at a concentration of 20 mg/ml, were added to the four wells together with 200 ul of RPMI as follows:
The cell suspensions were incubated overnight at 37° C. One ml of cell suspension was placed in 2.0 ml of RPMI and centrifuged at 1000 rpm for 5 minutes. The supernatants were decanted and the cells were resuspended in 200 ul of RPMI. Samples of each cell suspension were placed on a microscope slide and examined using a fluorescent microscope.

Row | Substance | Localisation of fluorescense in cells undergoing mitosis | Cells displaying fluorescense (20 ul of 20 mg/ml) | Cells displaying fluorescense (50 ul of 20 mg/ml)
1 | BSA-BF: Bovine Serum Albumin labeled by conjugation with both biotin and fluorescein | bright fluorescense that was confined to the nuclei | Approximately 40% | Approximately 40%
2 | BSA-F: Bovine Serum Albumin labeled with fluourescein alone [reference compound] |  | < 5% | < 5%
